Patent US12594282B2, “Use of small molecule compounds in the treatment of diseases mediated by lung epithelial cell injury and/or vascular endothelial cell injury” (Guangzhou Cellprotek Pharmaceutical Co., Ltd., priority 2020, dated 2026)

Key:
[1] = test system: LPS-induced acute lung injury; experiment: LPS-induced acute lung injury in rats (HE pathology, Smith score); format: in vivo, rat; conditions: for lung injury pathological score vs LPS model group: tail vein every 6 h x4, 24 h after LPS 6.4 mg/kg
Protocol: Animal grouping: 60 qualified rats with uniform body weight were selected and included in the experiment, and were randomly divided into 6 groups according to body weight, 10 rats/group. The animal grouping and the drug treatment dose of each group were as follows:
Drug administration: Test drugs were administered by tail vein at 0.3 mL/100 g body weight, hydrocortisone (25 mg/kg) was administered intraperitoneally at 0.5 mL/100 g body weight; the first administration for all the test agents were performed 0.5 h before LPS administration in the model. The test drug solvent and YC-6 were intravenously injected once every 6 h for a total of 4 injections, and the hydrocortisone (HC) group was intraperitoneally injected once every 12 h for a total of 2 injections.
After the rats were weighed and anesthetized by isoflurane, they were fixed in a supine position. The hair in the skin of the neck was removed, the skin of the neck was sterilized with 75% ethanol, and incised in the middle, after which the subcutaneous tissue was bluntly separated, and the upper trachea was exposed. 8 mg/mL LPS solution was injected into the trachea with a syringe, 0.2 mL/rat, and each rat was calculated as having body weight of […], and the dose was 6.4 mg/kg. Immediately after injection, the rats were erected, shaken, and rotated to distribute the LPS solution evenly in the lungs. The skin was sutured and disinfected with iodophor.
24 h after LPS injection, the animals were anesthetized by intraperitoneal injection of 20% […] solution at a volume of 6 mL/kg body weight. After the abdominal aorta was bled till the animal was dead, the thoracic cavity was exposed, and the lung tissue was collected. The left lung was fixed in 10% paraformaldehyde solution for 48 hours, after which the coronal plane of the left lung was cross-sectioned into two equal-width upper and lower parts, and then the lower half of the left lung was cross-sectioned into two equal-width parts according to the coronal plane. The sagittal plane of the upper half of the left lung and the coronal plane of the two lower half of the left lung were embedded in a paraffin block, sectioned and stained with hematoxylin-eosin (HE).
Tissue dehydration and paraffin embedding: The tissue was taken out of the fixative and successively immersed in 50% ethanol (30 min)-70% ethanol (overnight)-80% ethanol (30 min)-90% ethanol (30 min)-95% ethanol (30 min)-absolute ethanol (2 times, 30 min each time)-xylene (2 times, 5˜10 min each time, until the sample was completely transparent)-62° C. paraffin (3 times, 1 hour each time), followed by tissue embedding. Tissue paraffin sectioning: The thickness was 3 μm, the sections were dried on a microtome, and then placed in a 37° C. oven to dry overnight, and then used for HE staining. […]

NR4A3 mRNA = NR4A3 mRNA under OGD-R, HUVEC (real-time fluorescent quantitative PCR); format: cell-based, human; conditions: 10 μM given at restoration
Protocol: HUVEC cells were cultured in modified DMEM medium containing 10% fetal bovine serum. When the cells reached about 80% confluence, the cells were digested with 0.25% trypsin, and then pipetted evenly with modified DMEM containing 10% […]. The cell concentration was adjusted to 1×10^5 cells/mL, and the cells were seeded at 400 uL/well in a 24-well plate, and the experiment was carried out when the cells grew to about 70% confluence. RAOEC cells were cultured in high-glucose DMEM medium containing 10% fetal bovine serum, and the seeding conditions were the same as those of HUVEC. During the OGD-R injury treatment, the hypoxia workstation was set to have an oxygen concentration of 1% (1% O2, 5% CO2, 94% N2), a temperature of 37° C., and a humidity of 85%. A sugar-free DMEM medium was placed in the hypoxia workstation for pre-hypoxia for 3 hours. The medium in the culture plate was aspirated, and the plate was washed twice with preheated sugar-free DMEM medium, and 100 uL of sugar-free DMEM medium was added to each well. The culture plate was placed in the hypoxia workstation, and 300 uL of pre-hypoxic sugar-free DMEM medium was added to each well, and then the culture plate was placed in the hypoxia workstation for additional hypoxia for 4 hours. Restoration was then performed. […]

[2] = 12, 40, 120 mg/kg/d, HE staining

Structure (SMILES): C[C@@]12CCCC1C1C[C@@H](O)[C@]3(O)C[C@@H](O)CC[C@]3(C)C1CC2 (stereo partly drawn) [YC-6, 5α-androst-3β,5,6β-triol]
- lung injury pathological score vs LPS model group ([1]; 12 mg/kg/d): significantly lower pathological scores
- lung injury pathological score vs LPS model group ([1]; 40 mg/kg/d): significantly lower pathological scores
- lung injury pathological score vs LPS model group ([1]; 120 mg/kg/d): significantly lower pathological scores
- alveolar damage vs LPS model group [1, 2]: reduced alveolar damage
- inflammatory cell infiltration in lung tissue vs LPS model group [1, 2]: reduced inflammatory cell infiltration
- protective effect (pathological score) compared with 50 mg/kg/d hydrocortisone ([1]; low-dose group (12 mg/kg/d), P<0.05): significantly better protective effect
- transcription level of NR4A3 (relative mRNA expression) (NR4A3 mRNA): did not significantly up-regulate the transcription level of NR4A3
